Data on 17 substances can be found in patent US20170189504A1, “NOVEL PEPTIDES AND COMBINATION OF PEPTIDES FOR USE IN IMMUNOTHERAPY AGAINST VARIOUS CANCERS” (immatics biotechnologies GmbH, priority 2015, published 2017).

Assay [1] has as its system CD8+ T cells. The experiment in a line: In vitro immunogenicity: T-cell priming with aAPCs loaded with peptide/MHC complexes and anti-CD28 antibody, pMHC multimer readout (Tables 19A, 19B). Format: cell-based, human. The note with it: in vitro immunogenicity of HLA class I peptides, pMHC multimer readout after priming of CD8+ T cells. The method, then: In an aspect, the peptides are pre-screened for immunogenicity before being included in the warehouse. By way of example, and not limitation, the immunogenicity of the peptides included in the warehouse is determined by a method comprising in vitro T-cell priming through repeated stimulations of CD8+ T cells from healthy donors with artificial antigen presenting cells loaded with peptide/MHC complexes and anti-CD28 antibody.
In order to obtain information regarding the immunogenicity of the TUMAPs of the present invention, the inventors performed investigations using an in vitro T-cell priming assay based on repeated stimulations of CD8+ T cells with artificial antigen presenting cells (aAPCs) loaded with peptide/MHC complexes and anti-CD28 antibody.
In order to perform in vitro stimulations by artificial antigen presenting cells loaded with peptide-MHC complex (pMHC) and anti-CD28 antibody, the inventors first isolated CD8+ T cells from fresh HLA-A*02 leukapheresis products via positive selection using CD8 microbeads (Miltenyi Biotec, Bergisch-Gladbach, Germany) of healthy donors obtained from the University clinics Mannheim, Germany, after informed consent.
PBMCs and isolated CD8+ lymphocytes were incubated in T-cell medium (TCM) until use consisting of RPMI-Glutamax (Invitrogen, Karlsruhe, Germany) supplemented with 10% heat inactivated human AB serum (PAN-Biotech, Aidenbach, Germany), 100 U/ml Penicillin/100 μg/ml Streptomycin (Cambrex, Cologne, Germany), 1 mM sodium pyruvate (CC Pro, Oberdorla, Germany), 20 μg/ml Gentamycin (Cambrex). 2.5 ng/ml IL7 (PromoCell, Heidelberg, Germany) and 10 U/ml IL-2 (Novartis Pharma, Nurnberg, Germany) were also added to the TCM at this step.
Generation of pMHC/anti-CD28 coated beads, T-cell stimulations and readout was performed in a highly defined in vitro system using four different pMHC molecules per stimulation condition and 8 different pMHC molecules per readout condition.
The purified co-stimulatory mouse IgG2a anti human CD28 Ab 9.3 (Jung et al., 1987) was chemically biotinylated using Sulfo-N-hydroxysuccinimidobiotin as recommended by the manufacturer (Perbio, Bonn, Germany). Beads used were 5.6 μm diameter streptavidin coated polystyrene particles (Bangs Laboratories, Illinois, USA).
pMHC used for positive and negative control stimulations were A*0201/MLA-001 (peptide […] (SEQ ID NO. 303) from modified Melan-A/MART-1) and A*0201/DDX5-001 ([…] from DDX5, SEQ ID NO. 304), respectively.
800.000 beads/200 μl were coated in 96-well plates in the presence of 4×12.5 ng different biotin-pMHC, washed and 600 ng biotin anti-CD28 were added subsequently in a volume of 200 μl. Stimulations were initiated in 96-well plates by co-incubating […] CD8+ T cells with 2×10^5 washed coated beads in 200 μl TCM supplemented with 5 ng/ml IL-12 (PromoCell) for 3 days at 37° C. Half of the medium was then exchanged by fresh TCM supplemented with 80 U/ml IL-2 and incubating was continued for 4 days at 37° C. This stimulation cycle was performed for a total of three times. For the pMHC multimer readout using 8 different pMHC molecules per condition, a two-dimensional combinatorial coding approach was used as previously described (Andersen et al., 2012) with minor modifications encompassing coupling to 5 different fluorochromes. Finally, multimeric analyses were performed by staining the cells with Live/dead near IR dye (Invitrogen, Karlsruhe, Germany), CD8-FITC antibody clone SK1 (BD, Heidelberg, Germany) and fluorescent pMHC multimers. For analysis, a BD LSRII SORP cytometer equipped with appropriate lasers and filters was used. Peptide specific cells were calculated as percentage of total CD8+ cells. Evaluation of multimeric analysis was done using the FlowJo software (Tree Star, Oreg., USA). In vitro priming of specific multimer+ CD8+ lymphocytes was detected by comparing to negative control stimulations.

The test system of assay [2] is HLA-A*24. The experiment in a line: MHC binding assay, UV-ligand exchange with β2m ELISA, HLA-A*24 (Table 21). The arrangement: species or system human. The note with it: binding to HLA-A*24 ranged by peptide exchange yield (UV-ligand exchange, β2m ELISA). The gist of the method: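 Peptide–MHC complexes made by UV-ligand exchange of a UV-cleavable peptide, diluted 100-fold and captured on streptavidin plates. Stabilized complexes detected by HRP anti-β2m ELISA (1 h, 37° C, A450). Exchange yield derived against refolded HLA-A*02:01/MLA-001 monomer standards (15-500 ng/ml).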

As for “169 (AYTLIAPNI; listed as Homo sapiens) [compound 169]”, the “Wells positive [%]” value in assay [1] was “+++ (50%-69% = +++)”. For the same substance, the Peptide exchange entry in assay [2] is given as “+++ (50%-75% = +++)”.
With “207 (AYVVFVSTL; listed as Homo sapiens) [compound 207]”, the “Wells positive [%]” value in assay [1] is on record as “+ (<20% = +)”. The Peptide exchange entry in assay [2] is given as “++ (20%-49% = ++)”.
For “159 (LYNKGFIYL; listed as Homo sapiens) [compound 159]”, in that order: “++++ (≧70% = ++++)” and “++++ (≧75% = ++++)”.
For “285 (HYPPVQVLF; listed as Homo sapiens) [compound 285]”, in that order: “+ (<20% = +)” and “+++ (50%-75% = +++)”.
For “162 (VFTRVSSFL; listed as Homo sapiens) [compound 162]”, in that order: “++ (20%-49% = ++)” and “+++ (50%-75% = +++)”.
For the substance “199 (RYAEEVGIF; listed as Homo sapiens) [compound 199]”, the “Wells positive [%]” value in assay [1] is listed as “++ (20%-49% = ++)”. In addition, the Peptide exchange entry in assay [2] is reported as “+++ (50%-75% = +++)”.
For “218 (YYKSTSSAF; listed as Homo sapiens) [compound 218]”, in that order: “+ (<20% = +)” and “+++ (50%-75% = +++)”.
Turning to “176 (EYNQWFTKL; listed as Homo sapiens) [compound 176]”, the “Wells positive [%]” value in assay [1] is recorded as “+++ (50%-69% = +++)”. Further, the Peptide exchange entry in assay [2] is recorded as “+++ (50%-75% = +++)”.
“158 (HYSQELSLLYL; listed as Homo sapiens) [compound 158]”: in assay [1], the “Wells positive [%]” value was “+ (<20% = +)”. Also, the Peptide exchange result in assay [2] is “++++ (≧75% = ++++)”.
In the same order, the values of “222 (TFSVSSHLF; listed as Homo sapiens) [compound 222]” are “++ (20%-49% = ++)” and “+++ (50%-75% = +++)”.
As for “281 (PYRLIFEKF; listed as Homo sapiens) [compound 281]”, the “Wells positive [%]” value in assay [1] was “+++ (50%-69% = +++)”. In assay [2], the Peptide exchange result was “++ (20%-49% = ++)”.
For the substance “196 (LYIDRPLPYL; listed as Homo sapiens) [compound 196]”, in assay [1], the “Wells positive [%]” value was “++++ (≧70% = ++++)”. Besides, the Peptide exchange result in assay [2] is recorded as “+++ (50%-75% = +++)”.
For “197 (EYSLFPGQVVI; listed as Homo sapiens) [compound 197]”, in that order: “+ (<20% = +)” and “+++ (50%-75% = +++)”.
In the same order, the values of “163 (DYLKGLASF; listed as Homo sapiens) [compound 163]” are “+ (<20% = +)” and “++++ (≧75% = ++++)”.
In the same order, the values of “161 (IYLVSIPEL; listed as Homo sapiens) [compound 161]” are “++ (20%-49% = ++)” and “++++ (≧75% = ++++)”.
Regarding “200 (YYGPSLFLL; listed as Homo sapiens) [compound 200]”, in assay [1], the “Wells positive [%]” value was “++ (20%-49% = ++)”. Also, in assay [2], the Peptide exchange entry is “+++ (50%-75% = +++)”.
In the same order, the values of “204 (TYELRYFQI; listed as Homo sapiens) [compound 204]” are “+ (<20% = +)” and “++++ (≧75% = ++++)”.
